Test results reported in patent US11185096B2, “Sweet taste improving compositions including naringenin and steviol glycosides” (DR PEPPER/SEVEN UP, INC., priority 2014, dated 2021).

What was measured:
Format in all cases: in vivo
[1] = Taste evaluation of beverages with rebaudioside E, rebaudioside M or both, with and without naringenin (Example 3)
Method: In this example, samples were prepared to determine the taste attributes of reduced-calorie beverages including rebaudioside E, rebaudioside M, and combinations of rebaudiosides E and M, with and without naringenin. Beverages were prepared by adding rebaudiosides to the base solution shown in Table E. The tested concentrations of rebaudioside E, rebaudioside M, or a combination of both rebaudiosides, are shown in Table F. Beverages were then prepared by adding naringenin in various amounts, ranging from about 10 ppm to about 300 ppm, as shown in Table G. For example, naringenin was added to the base solution and each of the rebaudioside solutions shown in Table F. Further description of the beverages prepared in Example 3 is also shown in FIG. 2 of the drawings. Each of the prepared beverages was evaluated for changes or improvements for each of sweetness profile (upfront, middle, and back end sweetness), aftertaste (chemical, astringency), mouthfeel (cloying, thickness, thinness), and bitterness (relative to Rebaudioside A). For example, in a protocol to compare the bitterness of beverage samples to rebaudioside A, participants tasted each of an about 10 ml sample of the test beverage and an about 10 ml sample of a beverage including rebaudioside A (prepared in the same base solution shown in Table E). Relative bitterness was then immediately rated between the beverage samples.

[2] = Sensory panel evaluation of naringenin in water (Example 1); conditions: for Sweetness: sensory panelists
Method: Naringenin was evaluated in water as shown in Table B. Water used in all beverages described herein was specifically purified prior to use by processes well known in the art such as filtration, deionization, distillation, or reverse osmosis. Evaluation of the samples was performed using evaluation by sensory panelists. Beverage sampling comprised of taking an about 10 mL portion of the beverage into the mouth, holding the sample in the mouth, and rating the sweetness for each sample.

[3] = Taste evaluation of reduced-calorie beverage (Table C base formula) with added naringenin, compared to a full-calorie beverage (Example 2)
Excerpt: The base formula of Table C may provide about a 50% reduction in calories as compared to a typical full-calorie beverage.
For example, delocalization of sweetness, an attribute that relates to the beverage mouthfeel, was increased. […] Moreover, the aftertaste of naringenin-including samples became more syrupy, resulting in an aftertaste that was more similar to the full-calorie product. Improvements in sweetness and aftertaste were found for each of the above samples that included naringenin.

[4] = Table C base formula with naringenin 15 to 300 ppm

## C=C1C[C@@]23CC[C@H]4[C@@](C)(CCC[C@@]4(C)C(=O)O[C@@H]4O[C@H](CO)[C@@H](O)[C@H](O)[C@H]4O[C@@H]4O[C@H](CO)[C@@H](O)[C@H](O)[C@H]4O)[C@@H]2CC[C@]1(O[C@@H]1O[C@H](CO)[C@@H](O)[C@H](O)[C@H]1O[C@@H]1O[C@H](CO)[C@@H](O)[C@H](O)[C@H]1O)C3 [rebaudioside E]
[1]; Table E base with rebaudioside E 300 ppm, without naringenin, in comparison to sugar or rebaudioside M solutions
  sweetness profile: very flat sweetness profile and flat
[1]; rebaudioside E alone without naringenin, compared to rebaudioside M
  mouthfeel and fullness: less mouthfeel and fullness

## O=C1C[C@@H](c2ccc(O)cc2)Oc2cc(O)cc(O)c21 [naringenin]
[2]; in water, data of Table B (5 to 200 ppm)
  taste or flavor: does not elicit any taste or flavor
[2]; naringenin 5 ppm in water
  Sweetness: No perceptible sweetness
[2]; naringenin 10 ppm in water
  Sweetness: No perceptible sweetness
[2]; naringenin 20 ppm in water
  Sweetness: No perceptible sweetness
[2]; naringenin 40 ppm in water
  Sweetness: No perceptible sweetness
[2]; naringenin 80 ppm in water
  Sweetness: No perceptible sweetness
[2]; naringenin 100 ppm in water
  Sweetness: No perceptible sweetness
[2]; naringenin 200 ppm in water
  Sweetness: No perceptible sweetness
[1]; 10, 50 or 70 ppm naringenin with combination of rebaudioside E and rebaudioside M, vs rebaudioside M alone or with naringenin
  overall perception: perceived as better
[1]; 10 to 70 ppm naringenin with rebaudioside E, compared to rebaudioside E base alone
  mouthfeel: increased
[1]; 300 ppm naringenin, Table E base with rebaudioside E 300 ppm
  overall perception: perceived as negative
[1]; 300 ppm naringenin, Table E base with rebaudioside M 300 ppm
  overall perception: perceived as negative
[1]; 300 ppm naringenin, Table E base with rebaudiosides E and M 150 ppm each
  overall perception: perceived as negative
[1]; 300 ppm naringenin, across all bases
  suitability of naringenin level: too high
[1]; about 10 ppm to 70 ppm naringenin, Table E base with rebaudioside E 150 ppm and rebaudioside M 150 ppm
  sweetness profiles: significantly improved
[1]; about 10 ppm to about 70 ppm naringenin, Table E base with rebaudiosides E and M 150 ppm each
  cloying mouthfeel and aftertaste: diminished
[1]; higher naringenin concentrations, particularly 300 ppm, Table E base with rebaudioside M 300 ppm, some participants
  mouthfeel: cloying mouthfeel
[1]; naringenin added to Table E base with rebaudioside E 300 ppm
  sweetness in the middle of the profile: increased
[1]; naringenin added to Table E base with rebaudioside M 300 ppm
  taste character / mouthfeel: sticky sweet
[3]; [4]
  delocalization of sweetness: increased
  upfront sweetness profile: surprisingly increased
[3]; Table C base formula with naringenin 15 to 300 ppm, vs full-calorie beverage
  syrup qualities of the beverages (mouthfeel): increase syrup qualities
[3]; Table C base formula with naringenin 15 to 300 ppm, vs full-calorie product
  aftertaste: more syrupy
[3]; Table C base formula, 15 ppm naringenin
  sweetness profile: significantly improved
[3]; Table C base formula, about 30 ppm naringenin
  sweetness profile: close to that of the full-calorie product
[3]; Table C base formula, above 30 ppm up to about 300 ppm naringenin
  noticeable taste impressions or interference with flavors: did not provide any noticeable taste impressions
